Results reported in publication PMC3724992, “Identification of new HLA-A*0201-restricted cytotoxic T lymphocyte epitopes from neuritin” (Journal of Neuro-Oncology, 2013).

Legend:
[1] = test system: target cells expressing neuritin and HLA-A2.1; assay: 4-h 51Cr release cytotoxicity assay of CTLs induced in vitro; format: cell-based, human; details: PBMCs from four HLA-A2.1+ donors stimulated with peptide-pulsed DCs, E/T 25:1, 50:1, 100:1, triplicate
Procedure: (§1) PBMCs were isolated from healthy HLA-A2+ donors by Ficoll–Hypaque density gradient centrifugation (TBC company, Tianjing, China) and then seeded into culture flasks in RPMI-1640 medium supplemented with penicillin (100 U/ml), streptomycin (100 μg/ml), and 10 % FBS. After monocytes adhered (incubation for 2 h), the nonadherent cells were collected and frozen in freeze medium (60 % RPMI-1640 and 30 % FBS, 10 % DMSO) for later use in CTL assays. The adherent cells were cultured for 5 days in RPMI-1640 containing 1,000 U/ml of granulocyte–macrophage colony-stimulating factor (R&D Systems, Inc., Minneapolis, MN) and interleukin-4 (IL-4; R&D Systems, Inc.) and were the cultured for an additional 2 days in the presence of 1,000 U/ml of tumor necrosis factor α (R&D Systems, Inc.) to induce final maturation. After 7 days of culture, the mature DCs were harvested and analyzed for DC typical phenotypes by FACS analysis.
(§2) Briefly, DCs were loaded with different peptides at a final concentration of 100 μg/ml for 4 h and were then irradiated with 20 Gy, which prevented all outgrowths in the control cultures. Autologous T cells were restimulated every 7 days with the previously mentioned peptide-pulsed DCs to generate peptide-specific CTLs. Recombinant interleukin 2 (IL-2) at a concentration of 20 U/ml was added to the culture medium on day 3 after every stimulation. Cytotoxic T lymphocyte activity was then assessed on day 23 by a 4 h ^51Cr release assay. Effectors generated from negative peptide-pulsed DCs were used as controls.
To evaluate the levels of CTL activity, a standard 4-h ^51Cr release assay was used. Briefly, target cells were incubated with ^51Cr (100 μCi per 1 × 10^6 cells) for 2 h in a 37 °C water bath. […] After a 4-h incubation, the supernatants were harvested, and the amount of released ^51Cr was measured with a gamma counter. The percent specific lysis was calculated according to the following formula: […]
Fig. 3 Specific lysis of CTLs against target cells. […] After a 4-h incubation, the supernatants were harvested, and the amount of released ^51Cr was measured with a gamma counter. […]

IFN-γ-producing T cells = assay: IFN-γ ELISPOT assay of peptide-induced effectors; format: cell-based; details: human HLA-A2+ donor T cells restimulated every 7 days with DCs pulsed with 100 μg/ml peptide; assessed on day 23; triplicate; compared to negative peptide control, P < 0.05
Procedure: as §1, §2
IFN-γ secretion of effectors was assayed by enzyme-linked immunospot (ELISPOT). Multiscreen 96-well assay plates (Dakewe, Shenzhen, China) were precoated overnight at 4 °C with anti-IFN-γ antibody according to the manufacturer’s instruction. After washing with PBST (PBS-0.05 % Tween 20), plates were blocked for 1 h at 37 °C with PBS/1 % BSA. […] After being air-dried, the number of spots in each well was counted using the Bioreader 4000 PRO-X (Bio-Sys; Germany).
Fig. 2 Specific IFN-γ by ELISPOT assay. […] The IFN-γ secretion was then assessed on day 23. […]

[2] = test system: neuritin and HLA-A2.1 positive cells; assay: In vivo immunogenicity: CTLs from immunized mice, 51Cr release assay; details: HLA-A*0201/Kb mice, 100 μg peptide in IFA, boosted once a week for three times, splenocytes 7 days after immunization as effectors
Procedure: To evaluate the levels of CTL activity, a standard 4-h ^51Cr release assay was used. Briefly, target cells were incubated with ^51Cr (100 μCi per 1 × 10^6 cells) for 2 h in a 37 °C water bath. After incubation with ^51Cr, target cells were washed three times with PBS, resuspended in RPMI-1640 medium, and mixed with effector cells at a 25:1, 50:1 or 100:1 of effector to target (E/T) ratio. Assays were performed in triplicate for each sample at each ratio in a 96-well round-bottomed plate. After a 4-h incubation, the supernatants were harvested, and the amount of released ^51Cr was measured with a gamma counter. The percent specific lysis was calculated according to the following formula:
Specific lysis = (experimental release − spontaneous release)/(maximal release − spontaneous release) × 100 %
(§3) HLA-A*0201/Kb mice were immunized with 100 μg of various peptides prepared in incomplete Freund’s adjuvant (IFA) and boosted once a week for three times. As a control, mice were injected with an IFA emulsion without peptide. 7 days after immunization, splenocytes from injected animals were cultured and used as effector cells.
as §3, with “Fig. 5 In vivo induction of epitope-specific CTLs in vivo. HLA-A*0201/Kb” for “HLA-A*0201/Kb”, “cells. The cytotoxic activities of CTLs were determined against target cells at various E/T ratios using ^51Cr release assay. […] Compared with controls, P < 0.05” for “cells.”

[3] = biological target: T1, HLA-A*0201 molecules on T2 cells (Homo sapiens, UniProt P04439, D140Y/D185E/D98H/E176V/E277Q/G131W/G231S/I119V/I121R/I166T/I218V/L300P/L318F/N151K/N90K/P208A/P217A/Q86G/Q94H/R138H/R169H/T345S); assay: Peptide-binding assay: up-regulation of HLA-A*0201 on T2 cells; details: for FI (fluorescence index): 1 × 10^6 T2 cells, 50 μM peptide, serum-free RPMI 1640, β2-microglobulin 3 μg/ml, 16 h, 37 °C, flow cytometry with anti-HLA-A2 Ab (BB7.2) and FITC secondary, mean of triplicate; for affinity to HLA-A2.1 (in words): T2 cells, authors' grading of the Table 2 data
T1 construct: endogenous in cells; host or cells: T2 cells
Procedure: To determine whether the candidate epitopes can bind to HLA-A*0201 molecules, up-regulation of peptide-induced HLA-A*0201 molecules on T2 cells was examined. Briefly, according to previous reference, 1 × 10^6 T2 cells were incubated with 50 μM of the synthesized peptides in serum-free RPMI 1640 medium supplemented with β2-microglobulin (Sigma) at a concentration of 3 μg/ml for 16 h at 37 °C, 5 % CO2 [18]. Expression of HLA-A*0201 on T2 cells was then determined with the FACS Calibur flow cytometer (Becton–Dickinson, USA), by staining with primary anti-HLA-A2 Ab derived from BB7.2 and FITC-labeled goat-antimouse IgG (BD Biosciences Pharmingen, USA) secondary antibody. The data were analyzed using Cell Quest software (Becton–Dickinson, USA). The Fluorescence index (FI) was calculated as follows: FI = (mean FITC fluorescence with the given peptide − mean FITC fluorescence without peptide)/(mean FITC fluorescence without peptide). Samples were measured in triplicate and then mean FI was calculated. An octapeptide mHpa (519–526) ([…]) derived from mouse Hpa was served negative control.

[4] = biological target: T2, HLA-A*0201/peptide complexes on T2 cells (Homo sapiens, UniProt P04439, D140Y/D185E/D98H/E176V/E277Q/G131W/G231S/I119V/I121R/I166T/I218V/L300P/L318F/N151K/N90K/P208A/P217A/Q86G/Q94H/R138H/R169H/T345S); assay: Peptide/HLA-A*0201 complex stability on T2 cells; format: binding; details: authors' grading of the Table 2 data
T2 construct: Expression of HLA-A*0201 on T2 cells was then determined; endogenous in cells; host or cells: T2 cells
Procedure: Briefly, T2 cells (10^6/ml) were incubated overnight with the candidate peptides, respectively, at a concentration of 20 μg/ml in serum-free medium supplemented with β2-microglobulin at a concentration of 3 μg/ml at 37 °C.
Thereafter, they were washed four times to remove free peptides, incubated with Brefeldin A (10 µg/ml) for 1 h to block cell surface expression of newly synthesized HLA-A2.1 molecules, washed and incubated at 37 °C for 0, 2, 4, 6, or 8 h. Subsequently, cells were stained with anti-HLA-A2 antibody from BB7.2 cells to evaluate the HLA-A2.1 molecule expression. For each time point, peptide induced HLA-A*0201 expression was evaluated by the formula mentioned above. Dissociation complex50 (DC50) was defined as the time required for the loss of 50 % of the HLA-A*0201/peptide complexes stabilized at time = 0.

Sequence	FI (fluorescence index) [3]	affinity to HLA-A2.1 (in words) [3]	stability to HLA-A2.1 (in words) [4]	induction of neuritin-specific CTLs that lyse target cells [1]	peptide-specific T cell response (frequency of IFN-γ-producing T cells) (IFN-γ-producing T cells)	lysis of target cells by CTLs primed in immunized mice [2]
LLPAFPVLL [neuritin121–129]	1.24	moderate	–	able to elicit neuritin-specific CTLs	strong peptide-specific T cell response	could lyse neuritin and HLA-A2.1 positive cells with high efficiency
FSYGFFVI [mHpa (519–526), reference compound]	0.38	–	–	–	–	–
KLNGRYISL [neuritin4–12]	1.07	moderate	–	able to elicit neuritin-specific CTLs	strong peptide-specific T cell response	could lyse neuritin and HLA-A2.1 positive cells with high efficiency

More lines, main results first:

FI (fluorescence index) [3]	affinity to HLA-A2.1 (in words) [3]	stability to HLA-A2.1 (in words) [4]	Sequence	induction of neuritin-specific CTLs that lyse target cells [1]	peptide-specific T cell response (frequency of IFN-γ-producing T cells) (IFN-γ-producing T cells)	lysis of target cells by CTLs primed in immunized mice [2]
1.68	high	high	ILAVQIAYL [neuritin13–21]	able to elicit neuritin-specific CTLs	strong peptide-specific T cell response	could lyse neuritin and HLA-A2.1 positive cells with high efficiency
0.68	low	low	VLLVSLSAA [neuritin127–135]	–	–	–
